Here are results for 29 molecules from patent publication US20120129870A1, “PIPERAZINYL DERIVATIVES USEFUL AS MODULATORS OF THE NEUROPEPTIDE Y2 RECEPTOR” (priority 2007, published 2012).

The target of assay [1] is T1, NPY Y2 receptor (Homo sapiens, UniProt P49146).
T1 sequence (P49146 1-381): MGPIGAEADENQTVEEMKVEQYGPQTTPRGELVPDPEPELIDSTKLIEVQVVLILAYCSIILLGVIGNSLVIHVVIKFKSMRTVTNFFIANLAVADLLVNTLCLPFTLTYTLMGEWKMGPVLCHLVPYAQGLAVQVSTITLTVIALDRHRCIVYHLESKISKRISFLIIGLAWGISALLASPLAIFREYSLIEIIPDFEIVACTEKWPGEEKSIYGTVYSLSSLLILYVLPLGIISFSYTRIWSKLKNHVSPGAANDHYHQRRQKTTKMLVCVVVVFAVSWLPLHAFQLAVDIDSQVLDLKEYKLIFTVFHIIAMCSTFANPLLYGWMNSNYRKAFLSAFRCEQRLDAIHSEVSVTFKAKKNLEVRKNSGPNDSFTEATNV
The experiment in a line: Neuropeptide Y2 radioligand binding assay ([125I]PYY, KAN-Ts membranes). Set-up: endogenous in cells; host or cells: KAN-Ts cells (membrane preparation). The note with it: for IC50: KAN-Ts membranes endogenously expressing Y2, [125I]PYY (80 pM), 1 h at rt; for Ki: apparent Ki=IC50/(1+C/KD). In short, it runs like this: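 Membranes from KAN-Ts cells with endogenous Y2 receptors, incubated with 80 pM [125I]PYY ± compound for 1 h at rt in HEPES/NaCl/CaCl2/MgSO4 buffer, then filtered and counted. Nonspecific binding defined with […]. IC50 from sigmoidal fit; Ki = IC50/(1+C/KD).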

The target of assay [2] is T1, NPY Y2 receptor. The experiment in a line: Neuropeptide Y2 pKB assay (FLIPR, KAN-Ts cells stably expressing chimeric G proteins). Type of assay: cell-based. The note with it: apparent pKB, modified Cheng-Prusoff correction. As to the method: The assay was performed using the fluorimetric imaging plate reader (FLIPR) format as described in Dautzenberg, F. M., Biochemical Pharmacology 2005, 69, 1493.
KAN-Ts cells stably expressing chimeric G proteins were seeded at a density of 100,000 cells into poly-d-lysine coated 384-well blackwall, clear-bottom microtiter plates (Corning, N.Y.). One day later, the medium was removed and 50 μl loading medium DMEM high glucose, without serum, supplemented with 10 mM HEPES-acid, 0.1% BSA, 5 mM probenecid and 2 μM Fluo-3AM was added. Cells were loaded for 1 h at 37° C., washed twice with 50 μl assay buffer (5 mM HEPES-acid, 140 mM NaCl, 1 mM MgCl2, 5 mM KCl, 10 mM glucose) and then 30 μl assay buffer was added. Cells were further pre-incubated at room temperature before adding agonists or agonists plus antagonists in 20 μl assay buffer and then measured on a T-channel fluorometric imaging plate reader (FLIPR, Molecular Devices, Sunnyvale, Calif.). Antagonistic potency values were converted to apparent pKB values using a modified Cheng-Prusoff correction. Apparent pKB was calculated as pKB=−log IC50/1+[conc agonist/EC50].

On to `CCC(CC)C(=O)Nc1ccc(N2CCN(C(c3ccccc3)c3ncco3)CC2)c(F)c1` (single isomer, unassigned) [Compound 59, 2-Ethyl-N-{3-fluoro-4-[4-(oxazol-2-yl-phenyl-methyl)-piperazin-1-yl]-phenyl}-butyramide], for which the 50% inhibitory concentration (IC50) in assay [1] came out at 96 nM. Further, in assay [2], the Kb was 200 nM.

Turning to `CCC(CC)C(=O)Nc1ccc(N2CCN(C(c3ccccc3)c3ncco3)CC2)c(F)c1` (single isomer, unassigned) [Compound 60, 2-Ethyl-N-{3-fluoro-4-[4-(oxazol-2-yl-phenyl-methyl)-piperazin-1-yl]-phenyl}-butyramide], the IC50 in assay [1] came out at 34 nM. Also, in assay [2], the Kb is 63.1 nM.

Turning to `CC[C@@H](C)C(=O)Nc1ccc(N2CCN(C(c3ccccc3)c3ncco3)CC2)c(F)c1` (stereo in doubt) [Compound 91, N-{3-Fluoro-4-[4-(oxazol-2-yl-phenyl-methyl)-piperazin-1-yl]-phenyl}-2-methyl-butyramide], the IC50 in assay [1] came to 240 nM. For the same molecule, the Kb in assay [2] was 158 nM.

Take `CCc1noc(C(c2ccccc2)N2CCN(c3ccc(NC(=O)C(CC)CC)cc3F)CC2)n1` (stereo not shown) [Compound 1, 2-Ethyl-N-(4-{4-[(3-ethyl-[1,2,4]-oxadiazol-5-yl)-phenyl-methyl]-piperazin-1-yl}-3-fluoro-phenyl)-butyramide]: in assay [1], the IC50 came out at 27 nM. Besides, in assay [2], the Kb is 35.5 nM.

For the molecule `CCC(CC)C(=O)Nc1ccc(N2CCN(C(c3ccccc3)c3nc(C)no3)CC2)c(F)c1` (stereo not shown) [Compound 2, 2-Ethyl-N-(3-fluoro-4-{4-[(3-methyl-[1,2,4]-oxadiazol-5-yl)-phenyl-methyl]-piperazin-1-yl}phenyl)-butyramide], in assay [1], the half-maximal inhibitory concentration (IC50) stood at 27 nM. In addition, in assay [2], the Kb is 39.8 nM.

In assay [1], `CCC(CC)C(=O)Nc1ccc(N2CCN(C(c3ccccc3)c3ccccc3)CC2)c(F)c1` [Compound 4, N-[4-(4-Benzhydryl-piperazin-1-yl)-3-fluoro-phenyl]-2-ethyl-butyramide] displayed an IC50 of 33 nM. For the same molecule, the Kb in assay [2] is 79.4 nM.

Regarding `CCC(CC)C(=O)Nc1ccc(N2CCN(C(c3ccccc3)c3ncco3)CC2)c(F)c1` (stereo not shown) [Compound 20, 2-Ethyl-N-{3-fluoro-4-[4-(oxazol-2-yl-phenyl-methyl)-piperazin-1-yl]-phenyl}-butyramide], the IC50 in assay [1] is 40 nM. Besides, in assay [2], the Kb was 50.1 nM.

The molecule `CCC(CC)C(=O)Nc1ccc(N2CCN(C(c3ccccc3)c3cccnc3)CC2)c(F)c1` (stereo not shown) [Compound 24, 2-Ethyl-N-{3-fluoro-4-[4-(phenyl-pyridin-3-yl-methyl)-piperazin-1-yl]-phenyl}-butyramide] gave an IC50 in assay [1] of 40 nM. In assay [2], the Kb was 79.4 nM.

Molecule `CCC(CC)C(=O)Nc1ccc(N2CCN(C(c3ccc(OC)cc3)c3ncco3)CC2)c(F)c1` (stereo not shown) [Compound 140, 2-Ethyl-N-(3-fluoro-4-{4-[(4-methoxy-phenyl)-oxazol-2-yl-methyl]-piperazin-1-yl}-phenyl)-butyramide] registered a half-inhibitory concentration (IC50) in assay [1] of 320 nM.

Turning to `CCC(CC)C(=O)Nc1ccc(N2CCN(C(c3ccc(C#N)cc3)c3ncco3)CC2)c(F)c1` (stereo not shown) [Compound 146, N-(4-{4-[(4-Cyano-phenyl)-oxazol-2-yl-methyl]-piperazin-1-yl}-3-fluoro-phenyl)-2-ethyl-butyramide], in assay [1], the half-inhibitory concentration (IC50) stood at 260 nM.

Molecule `CCC(CC)C(=O)Nc1ccc(N2CCN(C(c3ccccn3)c3ncco3)CC2)c(C#N)c1` (stereo not shown) [Compound 155, N-{3-Cyano-4-[4-(oxazol-2-yl-pyridin-2-yl-methyl)-piperazin-1-yl]-phenyl}-2-ethyl-butyramide] showed a 50% inhibitory concentration (IC50) in assay [1] of 150 nM.

Consider `CCC(CC)C(=O)Nc1ccc(N2CCN(C(c3ccccn3)c3ncco3)CC2)c(F)c1` (stereo not shown) [Compound 156, 2-Ethyl-N-{3-fluoro-4-[4-(oxazol-2-yl-pyridin-2-yl-methyl)-piperazin-1-yl]-phenyl}-butyramide], for which the IC50 in assay [1] was 790 nM. Against the preceding molecule, the IC50 is about 5.3-fold higher.

`CCC(CC)C(=O)Nc1ccc(N2CCN(C(c3ccc(Cl)cc3)c3ncco3)CC2)c(F)c1` (stereo not shown) [Compound 157] registered an IC50 in assay [1] of 160 nM. This IC50 is about 4.9-fold lower than that of the molecule before.

For `O=C(NCc1ccc(N2CCN(C(c3ccccc3)c3ncco3)CC2)c(F)c1)C1CC1` (stereo not shown) [Compound 171, Cyclopropanecarboxylic acid 3-fluoro-4-[4-(oxazol-2-yl-phenyl-methyl)-piperazin-1-yl]-benzylamide], the half-inhibitory concentration (IC50) in assay [1] is greater than 10000 nM.

`CCC(CC)C(=O)Nc1ccc(N2CCN(C(C3=N[C@H](C(=O)OC)CO3)c3ccccc3)CC2)c(F)c1` (stereo partly shown) [Compound 179, 2-({4-[4-(2-Ethyl-butyrylamino)-2-fluoro-phenyl]-piperazin-1-yl}-phenyl-methyl)-4,5-dihydro-oxazole-4-carboxylic acid methyl ester] gave an IC50 in assay [1] of 41 nM. In other words, the double-digit nanomolar range.

`CCC(CC)C(=O)Nc1ccc(N2CCN(C(c3ccccc3)c3ncno3)CC2)c(F)c1` (stereo not shown) [Compound 231, 2-Ethyl-N-{3-fluoro-4-[4-([1,2,4]-oxadiazol-5-yl-phenyl-methyl)-piperazin-1-yl]-phenyl}-butyramide] showed an IC50 in assay [1] of 220 nM.

`CCC(CC)C(=O)Nc1ccc(N2CCN(C(C(C)=O)c3ccccc3)CC2)c(F)c1` (stereo not shown) [Compound 232, 2-Ethyl-N-{3-fluoro-4-[4-(2-oxo-1-phenyl-propyl)-piperazin-1-yl]-phenyl}-butyramide] registered an IC50 in assay [1] of 380 nM. Against the preceding molecule, the IC50 is about 1.7-fold higher.

`CCC(CC)C(=O)Nc1ccc(N2CCN(C(c3ccccc3)c3noc(C(F)(F)F)n3)CC2)c(F)c1` (stereo not shown) [Compound 234, 2-Ethyl-N-(3-fluoro-4-{4-[phenyl-(5-trifluoromethyl-[1,2,4]-oxadiazol-3-yl)-methyl]-piperazin-1-yl}-phenyl)-butyramide] showed a half-maximal inhibitory concentration (IC50) in assay [1] of 120 nM.

Regarding `CCC(CC)C(=O)Nc1ccc(N2CCN(C(c3ccccc3)c3nc(C(C)C)no3)CC2)c(F)c1` (stereo not shown) [Compound 241], the IC50 in assay [1] came to 35 nM.

In assay [1], `CCC(CC)C(=O)Nc1ccc(N2CCN(C(c3ccccc3)c3nc(-c4ccccc4)no3)CC2)c(F)c1` (stereo not shown) [Compound 242, 2-Ethyl-N-(3-fluoro-4-{4-[phenyl-(3-phenyl-[1,2,4]-oxadiazol-5-yl)-methyl]-piperazin-1-yl}-phenyl)-butyramide] gave a 50% inhibitory concentration (IC50) of 71 nM. This IC50 lies about 2-fold higher than the previous one.

In assay [1], `Cc1nc(C(c2ccc(OC(F)(F)F)cc2)N2CCN(c3ccc(NC(=O)C4CCOC4)cc3F)CC2)no1` (stereo not shown) [Compound 280] returned an IC50 of 430 nM.

In assay [1], `CCC(CC)C(=O)Nc1ccc(N2CCN(C(c3ccc(OC(F)(F)F)cc3)c3noc(C)n3)CC2)c(F)c1` (stereo not shown) [Compound 281] showed an IC50 of 65 nM.

With `CN(C)CC(=O)Nc1ccc(N2CCN(C(c3ccccc3)c3ccccc3)CC2)c(C#N)c1` [Compound 300, N-[4-(4-Benzhydryl-piperazin-1-yl)-3-cyano-phenyl]-2-dimethylamino-acetamide], in assay [1], the Ki was found to be 250 nM.

With `Cc1ccccc1C(c1ccccc1)N1CCN(c2ccc(NC(=O)c3c(C)noc3C)cc2C#N)CC1` (stereo not shown) [Compound 301, N-(3-Cyano-4-{4-[(2-methylphenyl)(phenyl)methyl]piperazin-1-yl}phenyl)-3,5-dimethylisoxazole-4-carboxamide], in assay [1], the Ki is 140 nM.

Turning to `CCC(CC)C(=O)Nc1ccc(N2CCN(C(c3ccc(F)cc3)c3ccc(F)cc3)CC2)c(C#N)c1` [Compound 307, N-(4-{4-[Bis(4-fluorophenyl)methyl]piperazin-1-yl}-3-cyanophenyl)-2-ethylbutanamide], the Ki in assay [1] was 150 nM.

For `Cc1noc(C)c1C(=O)Nc1ccc(N2CCN(C(c3ccc(F)cc3)c3ccc(F)cc3)CC2)c(C#N)c1` [Compound 309, 3,5-Dimethyl-isoxazole-4-carboxylic acid (4-{4-[bis-(4-fluoro-phenyl)methyl]-piperazin-1-yl}-3-cyano-phenyl)-amide], the Ki in assay [1] was 740 nM.

`CCC(CC)C(=O)Nc1ccc(N2CCN(C(c3ccccc3)c3ccc(Cl)cc3)CC2)c(C#N)c1` (stereo not shown) [Compound 311, N-(4-{4-[(4-Chloro-phenyl)-phenyl-methyl]-piperazin-1-yl}-3-cyano-phenyl)-2-ethyl-butyramide]: the Ki in assay [1] turned out to be 63 nM.

On to `Cc1noc(C)c1C(=O)Nc1ccc(N2CCN(C(c3ccccc3)c3ccc(Cl)cc3)CC2)c(C#N)c1` (stereo not shown) [Compound 312, 3,5-Dimethyl-isoxazole-4-carboxylic acid (4-{4-[(4-chloro-phenyl)-phenyl-methyl]-piperazin-1-yl}-3-cyano-phenyl)-amide], for which, in assay [1], the Ki came to 84 nM.

For `N#Cc1cc(NC(=O)C2CC2)ccc1N1CCN(C(c2ccccc2)c2ccncc2)CC1` (stereo not shown) [Compound 322, Cyclopropanecarboxylic acid {3-cyano-4-[4-(phenyl-pyridin-4-yl-methyl)-piperazin-1-yl]-phenyl}-amide], the Ki in assay [1] came to 34 nM.
